Measurements published in ChEMBL document CHEMBL4364276, “Discovery of 4-phenyl-2H-benzo[b][1,4]oxazin-3(4H)-one derivatives as potent and orally active PI3K/mTOR dual inhibitors” (Eur J Med Chem, 2019).

Key:
[1] = AUC (0 to infinity) in Sprague-Dawley rat at 10 mg/kg, po measured upto 24 hrs by LC-MS/MS analysis; assay type: ADME, organism-based; set-up: dose 10 mg/kg, time infinity, route oral; settings: in vivo
HeLa [2] = experiment: Antitumor activity against human HeLa cells xenografted in BALB/c nude mouse assessed as tumor growth inhibition at 50 mg/kg, ig administered for 30 days measured every 3 days during compound dosing relative to control; assay type: functional; settings: po, read-out: TGI
[3] = Toxicity in BALB/c mouse xenografted with human HeLa cells assessed as reduction in body weight at 20 to 50 mg/kg, ig administered for 30 days; assay type: organism-based; settings: in vivo, po, 720 h
[4] = target: Activin receptor type-1 (Homo sapiens) (UniProt Q04771); experiment: Inhibition of human ALK2 at 100 nM using casein as substrate by [gamma-33P]-ATP assay
[5] = target: TGF-beta receptor type-1 (Homo sapiens) (UniProt P36897); experiment: Inhibition of human ALK5 at 100 nM using casein as substrate by [gamma-33P]-ATP assay
[6] = target: Serine/threonine-protein kinase A-Raf (Homo sapiens) (UniProt P10398); experiment: Inhibition of human ARAF at 100 nM using MEK1 as substrate by [gamma-33P]-ATP assay
Sequence of Serine/threonine-protein kinase A-Raf (Homo sapiens) (P10398 whole entry): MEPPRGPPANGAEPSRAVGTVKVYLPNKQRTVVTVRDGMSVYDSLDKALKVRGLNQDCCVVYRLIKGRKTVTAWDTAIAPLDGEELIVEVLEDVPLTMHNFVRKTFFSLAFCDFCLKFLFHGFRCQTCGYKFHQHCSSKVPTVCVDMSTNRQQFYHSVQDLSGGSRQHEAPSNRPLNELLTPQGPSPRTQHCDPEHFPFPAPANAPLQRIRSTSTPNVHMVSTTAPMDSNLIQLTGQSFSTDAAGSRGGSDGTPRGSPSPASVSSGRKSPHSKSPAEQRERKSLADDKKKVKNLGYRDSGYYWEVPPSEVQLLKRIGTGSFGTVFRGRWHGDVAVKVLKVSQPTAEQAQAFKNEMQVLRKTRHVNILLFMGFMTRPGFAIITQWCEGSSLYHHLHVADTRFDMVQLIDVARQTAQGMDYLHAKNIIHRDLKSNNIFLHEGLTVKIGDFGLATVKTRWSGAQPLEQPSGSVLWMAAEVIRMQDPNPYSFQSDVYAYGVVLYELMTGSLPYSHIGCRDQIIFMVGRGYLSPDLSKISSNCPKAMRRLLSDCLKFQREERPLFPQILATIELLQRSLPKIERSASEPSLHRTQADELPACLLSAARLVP

[7] = target: Aurora kinase A (Homo sapiens) (UniProt O14965); experiment: Inhibition of human Aurora A at 100 nM using [H-LRRASLG] as substrate by [gamma-33P]-ATP assay
[8] = target: Calcium/calmodulin-dependent protein kinase type 1 (Homo sapiens) (UniProt Q14012); experiment: Inhibition of human CAMK1A at 100 nM using KKALRRQETVDAL as substrate by [gamma-33P]-ATP assay
[9] = target: Calcium/calmodulin-dependent protein kinase type II subunit beta (Homo sapiens) (UniProt Q13554); experiment: Inhibition of human CAMK2B at 100 nM using KKALRRQETVDAL as substrate by [gamma-33P]-ATP assay
[10] = target: Cyclin-dependent kinase 5/CDK5 activator 1 (Homo sapiens) (UniProt Q00535+Q15078); experiment: Inhibition of human CDK5/p35 at 100 nM using histone H1 as substrate by [gamma-33P]-ATP assay; assay type: protein-complex assay
[11] = target: CDK9/cyclin T1 (Homo sapiens) (UniProt O60563+P50750); experiment: Inhibition of human CDK9/cyclin-T1 at 100 nM using KTFCGTPEYLAPEVRREPRILSEEEQEMFRDFDYIADWC as substrate by [gamma-33P]-ATP assay; assay type: protein-complex assay
[12] = target: Casein kinase I isoform alpha-like (Homo sapiens) (UniProt Q8N752); experiment: Inhibition of human CK1a1L at 100 nM using KRRRAL[pS]VASLPGL as substrate by [gamma-33P]-ATP assay
Sequence of Casein kinase I isoform alpha-like (Homo sapiens) (Q8N752 whole entry, canonical isoform): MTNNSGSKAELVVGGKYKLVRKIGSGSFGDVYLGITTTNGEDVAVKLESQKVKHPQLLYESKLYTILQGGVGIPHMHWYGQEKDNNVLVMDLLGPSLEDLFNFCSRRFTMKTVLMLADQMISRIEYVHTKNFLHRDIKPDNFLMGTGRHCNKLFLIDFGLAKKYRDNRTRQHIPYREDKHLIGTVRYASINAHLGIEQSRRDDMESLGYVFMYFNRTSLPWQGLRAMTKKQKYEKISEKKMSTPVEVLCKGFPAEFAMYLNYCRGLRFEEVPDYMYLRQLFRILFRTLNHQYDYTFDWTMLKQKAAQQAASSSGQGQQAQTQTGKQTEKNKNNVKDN

[13] = target: Tyrosine-protein kinase CSK (Homo sapiens) (UniProt P41240); experiment: Inhibition of human CSK at 100 nM using poly[Glu:Tyr] (4:1) as substrate by [gamma-33P]-ATP assay
[14] = target: Serine/threonine-protein kinase DCLK1 (Homo sapiens) (UniProt O15075); experiment: Inhibition of human DCAMKL1 at 100 nM using KKLNRTLSFAEPG as substrate by [gamma-33P]-ATP assay
[15] = target: Dual specificity tyrosine-phosphorylation-regulated kinase 1A (Homo sapiens) (UniProt Q13627); experiment: Inhibition of human DYRK1A at 100 nM using RRRFRPASPLRGPPK as substrate by [gamma-33P]-ATP assay
[16] = target: Focal adhesion kinase 1 (Homo sapiens) (UniProt Q05397); experiment: Inhibition of human FAK at 100 nM using poly[Glu:Tyr] (4:1) as substrate by [gamma-33P]-ATP assay
Sequence of Focal adhesion kinase 1 (Homo sapiens) (Q05397 2-1052 limits assumed): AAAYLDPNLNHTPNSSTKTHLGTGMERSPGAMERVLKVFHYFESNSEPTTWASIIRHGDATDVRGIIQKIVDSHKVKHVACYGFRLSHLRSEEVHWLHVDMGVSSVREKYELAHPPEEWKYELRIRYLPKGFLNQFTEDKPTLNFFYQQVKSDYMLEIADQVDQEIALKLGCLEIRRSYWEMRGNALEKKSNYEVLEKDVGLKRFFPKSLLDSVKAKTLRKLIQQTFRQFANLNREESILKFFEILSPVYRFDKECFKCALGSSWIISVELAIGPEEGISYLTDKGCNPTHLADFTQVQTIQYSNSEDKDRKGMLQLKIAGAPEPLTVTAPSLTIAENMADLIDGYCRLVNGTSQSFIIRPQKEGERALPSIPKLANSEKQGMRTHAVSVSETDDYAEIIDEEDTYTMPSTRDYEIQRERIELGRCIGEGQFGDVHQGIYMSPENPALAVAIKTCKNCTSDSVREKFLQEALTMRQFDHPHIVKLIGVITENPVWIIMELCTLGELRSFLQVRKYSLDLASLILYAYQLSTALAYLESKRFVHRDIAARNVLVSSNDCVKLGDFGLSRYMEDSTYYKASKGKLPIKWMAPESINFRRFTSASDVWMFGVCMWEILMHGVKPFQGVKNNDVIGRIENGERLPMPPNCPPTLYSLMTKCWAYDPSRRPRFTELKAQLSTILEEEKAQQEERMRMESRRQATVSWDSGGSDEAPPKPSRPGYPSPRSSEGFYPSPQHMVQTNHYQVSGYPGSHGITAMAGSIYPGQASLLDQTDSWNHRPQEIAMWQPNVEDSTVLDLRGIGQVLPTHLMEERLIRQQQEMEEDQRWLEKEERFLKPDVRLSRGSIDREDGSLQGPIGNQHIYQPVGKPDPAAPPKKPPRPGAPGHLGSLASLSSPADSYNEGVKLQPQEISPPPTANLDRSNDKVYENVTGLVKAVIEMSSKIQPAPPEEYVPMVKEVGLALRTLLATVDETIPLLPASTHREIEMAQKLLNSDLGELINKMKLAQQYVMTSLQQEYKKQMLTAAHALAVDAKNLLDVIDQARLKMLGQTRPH

[17] = target: Rhodopsin kinase GRK1 (Homo sapiens) (UniProt Q15835); experiment: Inhibition of human GRK1 at 100 nM using casein as substrate by [gamma-33P]-ATP assay
[18] = target: Tyrosine-protein kinase Lyn (Homo sapiens) (UniProt P07948); experiment: Inhibition of human LYN-B at 100 nM using poly[Glu:Tyr] (4:1) as substrate by [gamma-33P]-ATP assay
[19] = target: Mitogen-activated protein kinase kinase kinase 6 (Homo sapiens) (UniProt O95382); experiment: Inhibition of human MEKK6 at 100 nM using MBP as substrate by [gamma-33P]-ATP assay
Sequence of Mitogen-activated protein kinase kinase kinase 6 (Homo sapiens) (O95382 whole entry): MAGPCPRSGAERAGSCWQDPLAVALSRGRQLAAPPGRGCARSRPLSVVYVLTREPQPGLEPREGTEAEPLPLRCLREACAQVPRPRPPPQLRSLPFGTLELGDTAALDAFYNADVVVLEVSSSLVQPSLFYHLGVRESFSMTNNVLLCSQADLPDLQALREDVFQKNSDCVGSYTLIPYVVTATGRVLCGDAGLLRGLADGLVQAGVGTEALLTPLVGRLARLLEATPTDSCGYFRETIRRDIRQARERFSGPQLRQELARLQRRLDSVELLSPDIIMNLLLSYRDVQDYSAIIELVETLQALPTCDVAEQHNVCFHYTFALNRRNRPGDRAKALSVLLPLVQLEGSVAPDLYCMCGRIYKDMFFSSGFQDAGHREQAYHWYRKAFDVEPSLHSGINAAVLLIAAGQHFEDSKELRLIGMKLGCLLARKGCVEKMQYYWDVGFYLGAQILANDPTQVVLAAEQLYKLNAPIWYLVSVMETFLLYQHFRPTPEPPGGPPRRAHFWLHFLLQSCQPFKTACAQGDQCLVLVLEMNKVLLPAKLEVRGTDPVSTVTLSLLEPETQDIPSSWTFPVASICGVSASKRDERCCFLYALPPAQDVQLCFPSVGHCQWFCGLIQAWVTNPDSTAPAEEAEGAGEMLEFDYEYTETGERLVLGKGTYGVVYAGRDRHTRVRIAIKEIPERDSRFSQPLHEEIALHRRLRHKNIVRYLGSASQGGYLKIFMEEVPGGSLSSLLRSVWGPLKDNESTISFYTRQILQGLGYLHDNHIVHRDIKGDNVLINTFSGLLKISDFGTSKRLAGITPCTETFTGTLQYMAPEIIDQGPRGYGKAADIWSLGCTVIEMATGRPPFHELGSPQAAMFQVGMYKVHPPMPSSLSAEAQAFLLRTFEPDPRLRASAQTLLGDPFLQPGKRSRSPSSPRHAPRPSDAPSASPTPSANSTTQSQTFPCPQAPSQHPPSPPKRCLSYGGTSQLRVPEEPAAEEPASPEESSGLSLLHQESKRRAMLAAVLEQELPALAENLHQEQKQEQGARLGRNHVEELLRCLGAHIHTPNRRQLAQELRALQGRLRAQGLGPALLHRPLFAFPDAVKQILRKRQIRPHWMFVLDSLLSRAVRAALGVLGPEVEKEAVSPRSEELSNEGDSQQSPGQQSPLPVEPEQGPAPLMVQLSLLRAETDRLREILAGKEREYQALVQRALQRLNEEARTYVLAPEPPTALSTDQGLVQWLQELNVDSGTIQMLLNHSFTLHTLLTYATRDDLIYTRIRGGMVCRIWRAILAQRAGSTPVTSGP

[20] = target: Serine/threonine-protein kinase 3 (Homo sapiens) (UniProt Q13188); experiment: Inhibition of human MST2 at 100 nM using MBP as substrate by [gamma-33P]-ATP assay
[21] = target: Serine/threonine-protein kinase PAK 4 (Homo sapiens) (UniProt O96013); experiment: Inhibition of human PAK4 at 100 nM using RRRLSFAEPG as substrate by [gamma-33P]-ATP assay
Sequence of Serine/threonine-protein kinase PAK 4 (Homo sapiens) (O96013 whole entry, looked up): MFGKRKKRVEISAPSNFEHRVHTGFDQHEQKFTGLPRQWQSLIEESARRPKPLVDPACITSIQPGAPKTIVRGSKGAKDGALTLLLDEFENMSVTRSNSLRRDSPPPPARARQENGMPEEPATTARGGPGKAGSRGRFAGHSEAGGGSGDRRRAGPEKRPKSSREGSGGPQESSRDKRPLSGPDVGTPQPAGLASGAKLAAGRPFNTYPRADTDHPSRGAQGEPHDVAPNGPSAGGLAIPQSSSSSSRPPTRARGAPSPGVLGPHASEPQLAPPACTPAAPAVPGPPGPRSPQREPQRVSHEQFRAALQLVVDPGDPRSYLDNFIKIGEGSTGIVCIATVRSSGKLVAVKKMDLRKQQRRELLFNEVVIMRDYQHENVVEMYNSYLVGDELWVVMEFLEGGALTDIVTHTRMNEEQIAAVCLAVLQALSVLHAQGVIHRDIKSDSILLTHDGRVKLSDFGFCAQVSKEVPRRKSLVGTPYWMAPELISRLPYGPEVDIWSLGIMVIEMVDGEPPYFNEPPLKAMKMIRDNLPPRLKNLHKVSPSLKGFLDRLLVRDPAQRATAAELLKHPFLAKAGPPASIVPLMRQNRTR

[22] = target: Serine/threonine-protein kinase pim-2 (Homo sapiens) (UniProt Q9P1W9); experiment: Inhibition of human PIM2 at 100 nM using RSRHSSYPAGT as substrate by [gamma-33P]-ATP assay
Sequence of Serine/threonine-protein kinase pim-2 (Homo sapiens) (Q9P1W9 whole entry, looked up): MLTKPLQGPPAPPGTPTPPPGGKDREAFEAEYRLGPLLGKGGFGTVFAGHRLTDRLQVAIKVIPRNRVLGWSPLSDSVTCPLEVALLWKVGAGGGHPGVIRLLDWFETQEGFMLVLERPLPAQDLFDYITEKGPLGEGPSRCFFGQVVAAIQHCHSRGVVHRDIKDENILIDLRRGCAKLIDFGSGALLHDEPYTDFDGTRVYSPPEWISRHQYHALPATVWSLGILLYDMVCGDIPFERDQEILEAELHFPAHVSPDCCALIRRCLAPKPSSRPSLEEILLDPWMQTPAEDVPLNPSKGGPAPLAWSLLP

[23] = target: Protein kinase C epsilon type (Homo sapiens) (UniProt Q02156); experiment: Inhibition of human PKCepsilon at 100 nM using ERMRPRKRQGSVRRRV as substrate by [gamma-33P]-ATP assay
[24] = target: Protein kinase C eta type (Homo sapiens) (UniProt P24723); experiment: Inhibition of human PKCeta at 100 nM using ERMRPRKRQGSVRRRV as substrate by [gamma-33P]-ATP assay
[25] = target: Serine/threonine-protein kinase D3 (Homo sapiens) (UniProt O94806); experiment: Inhibition of human PKCnu at 100 nM using KKLNRTLSVA as substrate by [gamma-33P]-ATP assay
Sequence of Serine/threonine-protein kinase D3 (Homo sapiens) (O94806 whole entry): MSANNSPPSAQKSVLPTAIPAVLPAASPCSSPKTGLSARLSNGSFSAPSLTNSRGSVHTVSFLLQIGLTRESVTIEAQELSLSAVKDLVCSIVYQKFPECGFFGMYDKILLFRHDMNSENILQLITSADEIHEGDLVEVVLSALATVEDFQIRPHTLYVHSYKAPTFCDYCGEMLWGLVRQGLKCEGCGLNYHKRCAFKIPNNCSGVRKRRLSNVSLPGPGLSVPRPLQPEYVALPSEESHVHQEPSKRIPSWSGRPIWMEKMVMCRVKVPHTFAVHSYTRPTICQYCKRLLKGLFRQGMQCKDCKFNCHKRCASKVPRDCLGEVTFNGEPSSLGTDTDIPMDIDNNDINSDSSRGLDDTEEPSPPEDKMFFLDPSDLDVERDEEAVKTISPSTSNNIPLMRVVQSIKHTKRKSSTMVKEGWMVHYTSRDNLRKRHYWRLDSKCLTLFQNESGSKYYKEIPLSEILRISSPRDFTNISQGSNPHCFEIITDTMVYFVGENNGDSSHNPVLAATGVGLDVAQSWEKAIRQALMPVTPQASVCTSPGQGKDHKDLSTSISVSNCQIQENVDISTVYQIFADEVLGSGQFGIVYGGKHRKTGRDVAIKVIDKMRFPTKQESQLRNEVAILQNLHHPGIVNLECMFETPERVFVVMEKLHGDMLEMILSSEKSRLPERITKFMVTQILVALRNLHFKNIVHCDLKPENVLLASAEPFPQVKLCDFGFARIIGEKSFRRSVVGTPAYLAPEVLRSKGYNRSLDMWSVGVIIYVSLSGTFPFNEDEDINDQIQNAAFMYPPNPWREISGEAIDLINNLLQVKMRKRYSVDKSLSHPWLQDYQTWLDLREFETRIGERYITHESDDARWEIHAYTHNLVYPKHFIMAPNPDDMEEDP

[26] = target: Serine/threonine-protein kinase D2 (Homo sapiens) (UniProt Q9BZL6); experiment: Inhibition of human PKD2 at 100 nM using KKLNRTLSVA as substrate by [gamma-33P]-ATP assay
[27] = target: Receptor-interacting serine/threonine-protein kinase 2 (Homo sapiens) (UniProt O43353); experiment: Inhibition of human RIPK2 at 100 nM using MBP as substrate by [gamma-33P]-ATP assay
[28] = target: Dual specificity testis-specific protein kinase 2 (Homo sapiens) (UniProt Q96S53); experiment: Inhibition of human TESK2 at 100 nM using cofilin as substrate by [gamma-33P]-ATP assay
[29] = target: BDNF/NT-3 growth factors receptor (Homo sapiens) (UniProt Q16620); experiment: Inhibition of human TRKB at 100 nM using poly[Glu:Tyr] (4:1) as substrate by [gamma-33P]-ATP assay
[30] = target: Serine/threonine-protein kinase WNK3 (Homo sapiens) (UniProt Q9BYP7); experiment: Inhibition of human WNK3 at 100 nM using MBP as substrate by [gamma-33P]-ATP assay
HeLa [31] = experiment: Inhibition of colony formation in human HeLa cells at 1.25 uM incubated for 2 weeks crystal violet staining based assay; assay type: functional; settings: 336 h

## COc1ccc(N2C(=O)COc3ccc(-c4cnc(OC)c(NS(=O)(=O)c5ccc(F)cc5)c4)cc32)cc1
[1]
  AUC(0-inf): 4750 ng·h/mL
HeLa [2]
  inhibition in vivo at 50 mg/kg: 87.7%
[3]
  Activity: Non-Toxic
[4]
  inhibition: 12.7%
[5]
  inhibition: 0.84%
[6]
  inhibition: 0.31%
[7]
  inhibition: 3.17%
[8]
  inhibition: 1.42%
[9]
  inhibition: 5.36%
[10]
  inhibition: 8.65%
[11]
  inhibition: 16.8%
[12]
  inhibition: -6.28%
[13]
  inhibition: 1%
[14]
  inhibition: -5.81%
[15]
  inhibition: 5.57%
[16]
  inhibition: 15.9%
[17]
  inhibition: -9.8%
[18]
  inhibition: 4.9%
[19]
  inhibition: 3.96%
[20]
  inhibition: -8.9%
[21]
  inhibition: 7.74%
[22]
  inhibition: 0.23%
[23]
  inhibition: 3.65%
[24]
  inhibition: 18%
[25]
  inhibition: 2.41%
[26]
  inhibition: -3.61%
[27]
  inhibition: 14.2%
[28]
  inhibition: 0.47%
[29]
  inhibition: -0.11%
[30]
  inhibition: -0.32%
HeLa [31]
  inhibition at 1.25 µM: > 50%
